According to ChEMBL document CHEMBL5214908, “Small Scorpion-like Peptidomimetics: Potential Broad-Spectrum Membrane Active Antimicrobials without Detectable Resistance” (J Med Chem, 2021):
≈ marks a conversion by molar mass, not a printed value.

Experiments:
[1] = tested on: Staphylococcus aureus; assay: Antibacterial activity against methicillin-resistant Staphylococcus aureus assessed as reduction in bacterial growth; format: functional
[2] = Hemolytic activity in human RBC; format: toxicity, cell-based, Erythrocyte; conditions: human red blood cells (erythrocytes)
[3] = tested on: Klebsiella pneumoniae; assay: Antibacterial activity against Klebsiella pneumoniae assessed as reduction in bacterial growth; format: functional
[4] = tested on: Staphylococcus aureus; assay: In vivo antibacterial activity against methicillin-resistant Staphylococcus aureus infected in murine assessed as log reduction in bacterial burden; format: functional; design: scale not given: the % may be the effect or the level left
[5] = tested on: Staphylococcus epidermidis; assay: Antibacterial activity against methicillin-resistant Staphylococcus epidermidis assessed as reduction in bacterial growth; format: functional
[6] = tested on: Enterococcus faecium; assay: Antibacterial activity against vancomycin-resistant Enterococcus faecium assessed as reduction in bacterial growth; format: functional
[7] = tested on: Pseudomonas aeruginosa; assay: Antibacterial activity against Pseudomonas aeruginosa assessed as reduction in bacterial growth; format: functional
[8] = tested on: Escherichia coli; assay: Antibacterial activity against Escherichia coli assessed as reduction in bacterial growth; format: functional

SMILES	MIC [1]	HC50 [2]	MIC [3]	Activity [4]	MIC [5]	MIC [6]	MIC [7]	MIC [8]
CCCCCCCCCNC(=O)[C@H](CCCCN)NC(=O)c1ccc(C(=O)N[C@@H](CCCCN)C(=O)NCCCCCCCCC)cc1	0.75 µg/mL (≈ 1.11 µM)	180 µg/mL	–	–	–	–	–	–
NCCCC[C@H](N)CN(CC(=O)Nc1cc(NC(=O)CN(C[C@@H](N)CCCCN)C(=O)CC23CC4CC(CC(C4)C2)C3)cc(C(=O)NCCNC(=O)CC23CC4CC(CC(C4)C2)C3)c1)C(=O)CC12CC3CC(CC(C3)C1)C2	2 µg/mL (≈ 1.88 µM)	250 µg/mL	2 µg/mL (≈ 1.88 µM)	99.998%	2 µg/mL (≈ 1.88 µM)	2 µg/mL (≈ 1.88 µM)	2 µg/mL (≈ 1.88 µM)	2 µg/mL (≈ 1.88 µM)
